From PMC6816013 (Journal of Medicinal Chemistry, 2019) come the findings set out here.

As a reminder, the EC50 is the concentration needed to bring the measured effect to its halfway point. The term logD denotes lipophilicity at a set pH, counting ionised and neutral species. A lower logD goes with a more hydrophilic compound. A word on the Solubility: it is the dissolved amount per volume that the medium holds. High values mean a readily soluble substance, low ones a poorly soluble substance.

“Also recorded” adds a separate entry of the source. Structures can show the parent of a compound that is named as a salt. Where two headings read alike, the source gives them in different places. Some results are limits rather than exact numbers.

One data set is described as follows: Cell cytotoxicity assay. The format is cell-based.
The next data set addresses HSA (Homo sapiens, UniProt P02768). Put plainly: HSA binding (plasma protein binding). The format is in vitro ADME.
Data set [1] relates to Plasmodium falciparum 3D7A. The settings on record: read-out: Pf EC50; 3D7A asexual blood stage, 48 h [3H]-hypoxanthine assay, maximal concentration 5 μM.
The conditions of data set [2]: ChromlogD.
The conditions of data set [3]: aqueous solubility.
Data set [4] has as its system P. falciparum strain 3D7A. The format is cell-based, Plasmodium falciparum.
Data set [5] concerns Plasmodium falciparum WT cell line. The experiment in a line: Growth inhibition of P. falciparum WT cell line at 48 and 72 h. The format is cell-based. Conditions: read-out: Pf WT cell line EC50 72h.
Data set [6] concerns the target T1, serine/arginine protein kinase 2 (SRPK2 or CLK2) (Plasmodium falciparum, UniProt Q8IL41).
T1 sequence (Q8IL41 1-1268): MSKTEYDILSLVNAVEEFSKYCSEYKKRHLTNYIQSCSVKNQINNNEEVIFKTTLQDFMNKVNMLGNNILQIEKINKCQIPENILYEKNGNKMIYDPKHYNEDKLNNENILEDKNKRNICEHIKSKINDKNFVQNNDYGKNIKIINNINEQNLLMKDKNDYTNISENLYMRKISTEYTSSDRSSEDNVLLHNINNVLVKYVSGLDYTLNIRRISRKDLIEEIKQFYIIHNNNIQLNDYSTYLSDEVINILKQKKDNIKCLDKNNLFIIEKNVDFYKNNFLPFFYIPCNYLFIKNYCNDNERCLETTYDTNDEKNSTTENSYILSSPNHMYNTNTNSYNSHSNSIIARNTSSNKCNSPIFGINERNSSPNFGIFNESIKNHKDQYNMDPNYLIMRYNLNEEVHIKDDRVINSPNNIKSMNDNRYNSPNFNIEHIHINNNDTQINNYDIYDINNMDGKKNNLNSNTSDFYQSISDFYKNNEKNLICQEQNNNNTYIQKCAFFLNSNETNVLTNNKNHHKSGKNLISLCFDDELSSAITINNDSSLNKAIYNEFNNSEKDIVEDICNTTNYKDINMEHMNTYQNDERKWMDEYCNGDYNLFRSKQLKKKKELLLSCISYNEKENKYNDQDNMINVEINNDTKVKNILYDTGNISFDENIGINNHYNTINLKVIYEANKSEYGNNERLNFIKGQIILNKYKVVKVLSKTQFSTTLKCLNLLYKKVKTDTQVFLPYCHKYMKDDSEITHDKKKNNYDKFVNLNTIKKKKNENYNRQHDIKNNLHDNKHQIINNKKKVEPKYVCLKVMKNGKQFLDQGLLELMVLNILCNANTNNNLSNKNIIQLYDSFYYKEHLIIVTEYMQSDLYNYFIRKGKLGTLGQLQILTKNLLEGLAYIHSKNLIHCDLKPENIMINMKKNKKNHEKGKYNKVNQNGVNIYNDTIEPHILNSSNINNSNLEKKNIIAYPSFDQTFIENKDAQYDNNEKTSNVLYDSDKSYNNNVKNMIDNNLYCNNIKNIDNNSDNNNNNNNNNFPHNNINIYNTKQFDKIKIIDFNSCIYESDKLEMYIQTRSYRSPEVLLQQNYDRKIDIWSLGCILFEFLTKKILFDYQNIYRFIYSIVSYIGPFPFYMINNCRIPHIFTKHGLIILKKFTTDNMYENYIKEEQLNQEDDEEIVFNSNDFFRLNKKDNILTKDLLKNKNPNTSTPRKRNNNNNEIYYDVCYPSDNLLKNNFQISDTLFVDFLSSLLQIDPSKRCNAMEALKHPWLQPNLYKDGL
Put plainly: Kinobeads competition binding in P. falciparum extract. The settings on record: Figure 4a, read-out: Kd^app SRPK2.

The next data set addresses T2, SRPK2 (Plasmodium falciparum, UniProt Q8IL41).
T2 sequence (Q8IL41 1-1268): T1 sequence (Q8IL41 1-1268)
Put plainly: Pull down with compound 31 or 50 attached to beads, competition with free compound. The format is binding. The settings on record: competed with free analogue, Figure 4b.

Data set [7] can be described thus: Intrinsic clearance in rat liver microsomes. It is filed as in vitro ADME. Conditions: 0.5 µM. In general terms: Liver microsomes are vesicles of endoplasmic reticulum, rich in cytochrome P450 enzymes.

HSA, sequence (P02768 25-609): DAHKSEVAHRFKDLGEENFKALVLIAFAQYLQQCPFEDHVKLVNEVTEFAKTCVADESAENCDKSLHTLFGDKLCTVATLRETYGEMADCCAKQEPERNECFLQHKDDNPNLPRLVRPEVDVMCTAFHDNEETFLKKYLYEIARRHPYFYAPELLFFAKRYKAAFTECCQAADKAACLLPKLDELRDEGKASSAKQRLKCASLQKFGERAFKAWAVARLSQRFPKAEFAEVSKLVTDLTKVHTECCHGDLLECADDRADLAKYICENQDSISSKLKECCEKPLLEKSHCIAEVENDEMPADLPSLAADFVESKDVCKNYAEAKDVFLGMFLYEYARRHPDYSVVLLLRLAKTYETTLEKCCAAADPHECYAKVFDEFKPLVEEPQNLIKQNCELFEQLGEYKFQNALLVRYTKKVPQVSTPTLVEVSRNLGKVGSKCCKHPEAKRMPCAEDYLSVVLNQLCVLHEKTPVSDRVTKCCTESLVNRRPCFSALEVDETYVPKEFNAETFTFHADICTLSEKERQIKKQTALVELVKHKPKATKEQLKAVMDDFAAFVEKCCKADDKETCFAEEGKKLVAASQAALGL

For the compound “4-(4-(4-Fluorophenyl)-2-(piperidin-4-yl)thiazol-5-yl)-N-(1-(piperidin-4-yl)-1H-pyrazol-3-yl)pyrimidin-2-amine [Compound 24]”, the EC50 worked out at 100 µM in the data set “Cell cytotoxicity assay” and 3.31 µM in data set [1]. For the same compound, the HSA binding on HSA was determined as 93%. Also, the logD in data set [2] amounted to 1.29. This compound displayed a Solubility in data set [3] of 131 µM. Under “Tables 2 and 5”, this compound showed an AMP of 3e-07 cm/s.

Regarding `CN1CCC(c2nc(-c3ccc(F)c(NS(C)(=O)=O)c3)c(-c3ccnc(NCC4CC4)n3)s2)CC1` [Compound 5, reference compound], at HSA, the HSA binding was 91%. The “rate of killing in PRR study” value in [4] (PRR, 10 × EC50, result in words) was “slow-acting compound; also recorded: slow parasite killing kinetics”. Further, in data set [5], the EC50 is 0.11 µM. Besides, the AMP reads like this: (Tables 1 and 4) 3.4e-05 cm/s; (Tables 2 and 5) 3.4e-06 cm/s.

Regarding `Fc1ccc(-c2nc(C3CCNCC3)sc2-c2ccnc(NCCN3CCSCC3)n2)cc1` [Compound 50, 4-(4-(4-Fluorophenyl)-2-(piperidin-4-yl)thiazol-5-yl)-N-(2-thiomorpholinoethyl)pyrimidin-2-amine], the HSA binding at HSA is reported as 90%. In addition, in [6], the Kd is > 20 µM. For the same compound, the “apparent Kd SRPK2 on immobilized compounds” value at SRPK2 is “not bind to 50 attached to beads”.

`Cc1cc(Nc2nccc(-c3sc(C4CCNCC4)nc3C3CC3)n2)ccn1` [Compound 59, 4-(4-Cyclopropyl-2-(piperidin-4-yl)thiazol-5-yl)-N-(2-methylpyridin-4-yl)pyrimidin-2-amine Dihydrochloride] displayed a Cl rat in data set [7] of 1.8 mL/min/g. Moreover, the “rate of killing in PRR study” value in [4] was “potent fast-killing properties”. Besides, for the setting “PAMPA”, the AMP is given as 1.8.
